# Reference: patent US6683103B2, “Sulfonamides for treatment of endothelin-mediated disorders” (Texas Biotechnology Corporation, priority 1997, dated 2004)
# Like-named read-outs stand apart in the source and are kept apart here.
# Key:
# [1] = molecular target: T1, human ETA receptors (Homo sapiens, UniProt P25101); test: Binding Test #1: inhibition of 125I-ET-1 binding to ETA receptors (TE 671 cell membranes); settings: read-out: ETA
# T1 construct: endogenous in cells; host or cells: TE 671 cells (ATCC HTB 139)
# T1 sequence (P25101 21-427): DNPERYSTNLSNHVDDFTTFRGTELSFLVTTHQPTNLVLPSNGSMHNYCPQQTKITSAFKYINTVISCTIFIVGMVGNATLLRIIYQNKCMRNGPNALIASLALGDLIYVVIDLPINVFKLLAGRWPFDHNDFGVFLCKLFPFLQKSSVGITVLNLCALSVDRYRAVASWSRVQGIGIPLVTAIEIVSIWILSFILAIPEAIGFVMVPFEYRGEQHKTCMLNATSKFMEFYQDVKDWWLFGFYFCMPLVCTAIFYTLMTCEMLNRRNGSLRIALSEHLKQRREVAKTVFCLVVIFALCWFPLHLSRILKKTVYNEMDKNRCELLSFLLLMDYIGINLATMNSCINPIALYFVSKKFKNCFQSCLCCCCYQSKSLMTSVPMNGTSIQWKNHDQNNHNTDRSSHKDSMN
# Outline: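 Radioligand competition in triplicate: ¹²⁵I-endothelin-1 displaced by test compound (1 nM–100 μM final) from ETA-bearing TE 671 cell membranes in HEPES pH 7.4 binding buffer with NaCl, MgCl2 and bacitracin. Incubation 16–18 h at 4 °C (or at 24 °C); 80 nM ET-1 defines nonspecific binding; pellet radioactivity gives percent inhibition.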
# [2] = molecular target: T2, human ETB receptor (Homo sapiens, UniProt P24530); test: Binding Test #2: inhibition of 125I-ET-1 binding to ETB receptors (transfected COS7 cell membranes)
# T2 construct: expressed in transfected cells; host or cells: COS7 cells
# T2 sequence (P24530 27-442): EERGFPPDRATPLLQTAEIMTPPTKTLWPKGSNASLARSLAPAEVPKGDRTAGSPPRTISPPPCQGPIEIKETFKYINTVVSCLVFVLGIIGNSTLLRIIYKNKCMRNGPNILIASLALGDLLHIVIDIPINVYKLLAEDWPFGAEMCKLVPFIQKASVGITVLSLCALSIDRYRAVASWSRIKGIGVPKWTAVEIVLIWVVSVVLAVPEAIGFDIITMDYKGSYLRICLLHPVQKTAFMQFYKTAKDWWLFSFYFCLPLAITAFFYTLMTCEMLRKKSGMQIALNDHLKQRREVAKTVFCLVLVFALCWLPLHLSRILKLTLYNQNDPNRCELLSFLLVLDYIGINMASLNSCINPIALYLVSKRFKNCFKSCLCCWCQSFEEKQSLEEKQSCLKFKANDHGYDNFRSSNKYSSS
# Outline: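 Competition with 125I-ET-1 for binding to membranes from COS7 cells transfected with human ETB receptor, used at 1 μg/50 μl binding buffer. Membranes prepared in HEPES pH 7.4 with aprotinin, including a DNase/MnCl2 step at 37 °C for 30 min.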
# [3] = Table 1, † incubation at 24° C.
# [4] = Table 1, † incubation at 24° C., read-out: ETB
# [5] = Table 1, incubation at 4° C., read-out: ETB
# [6] = Table 2, incubation at 4° C., read-out: ETB
Structure (SMILES),"IC50 [1, 3] [µM]","IC50 [2, 4] [µM]","IC50 ([1]; Table 1, incubation at 4° C.) [µM]","IC50 [2, 5] [µM]",also measured
Cc1cccc(-c2ccc(S(=O)(=O)Nc3onc(C)c3Br)s2)c1 [N-(4-bromo-3-methyl-5-isoxazolyl)-5-(3-tolyl)thiophene-2-sulfonamide],15,4.2,–,–,–
Cc1noc(NS(=O)(=O)c2ccc(-c3ccc(C(=O)O)cc3)s2)c1Br [N-(4-bromo-3-methyl-5-isoxazolyl)-5-(4-carboxyphenyl)thiophene-2-sulfonamide],> 100,31,–,–,–
CCc1ccc(-c2ccc(S(=O)(=O)Nc3onc(C)c3Br)s2)cc1 [N-(4-bromo-3-methyl-5-isoxazolyl)-5-(4-ethylphenyl)thiophene-2-sulfonamide],–,–,3.23,0.0855,–
COc1ccc(-c2ccc(S(=O)(=O)Nc3onc(C)c3Br)s2)cc1 [N-(4-bromo-3-methyl-5-isoxazolyl)-5-(4-methoxyphenyl)thiophene-2-sulfonamide],26.3,2.4,8.69,0.363,–
COC(=O)c1ccc(-c2ccc(S(=O)(=O)Nc3onc(C)c3Br)s2)cc1 [N-(4-bromo-3-methyl-5-isoxazolyl)-5-(4-methyoxycarbonylphenyl)thiophene-2-sulfonamide],> 100,17,–,–,–
Cc1ccc(NC(=O)c2ccc(S(=O)(=O)Nc3onc(C)c3Br)s2)cc1 [N-(4-bromo-3-methyl-5-isoxazolyl)-5-(4-tolyl)aminocarbonyl)thiophene-2-sulfonamide],28,8.6,–,–,–
Cc1noc(NS(=O)(=O)c2ccc(-c3ccc(C(C)C)cc3)s2)c1Br [N-(4-bromo-3-methyl-5-isoxazolyl)-5-(4′-isopropylphenyl))thiophene-2-sulfonamide],–,–,1.6,0.3,–
CCCc1ccc(-c2ccc(S(=O)(=O)Nc3onc(C)c3Br)s2)cc1 [N-(4-bromo-3-methyl-5-isoxazolyl)-5-(4′-propylphenyl))thiophene-2-sulfonamide],–,–,5.6,0.51,–
CCc1ccc(-c2ccc(S(=O)(=O)Nc3onc(C)c3Br)s2)s1 [N-(4-bromo-3-methyl-5-isoxazolyl)-5-(5-ethylthien-2-yl)thiophene-2-sulfonamide],24,7.7,–,–,–
Cc1noc(NS(=O)(=O)c2ccc(Sc3ccccc3)o2)c1Br [N-(4-bromo-3-methyl-5-isoxazolyl)-5-(phenthio)furan-2-sulfonamide],–,–,5,7,–
"Cc1noc(NS(=O)(=O)c2ccc(-c3cc(C(F)(F)F)cc(C(F)(F)F)c3)s2)c1Br [N-(4-bromo-3-methyl-5-isoxazolyl)-5-[3,5-bis(triflouromethyl)phenyl]thiophene-2-sulfonamide]",5.9,15.5,0.794,12,–
Cc1noc(NS(=O)(=O)c2ccc(-c3ccc(C(F)(F)F)cc3)s2)c1Br [N-(4-bromo-3-methyl-5-isoxazolyl)-5-[4-(trifluoromethyl)phenyl]thiophene-2-sulfonamide],6.31,0.282,6.39,0.0835,–
Cc1noc(NS(=O)(=O)c2ccc(Br)s2)c1Br [N-(4-bromo-3-methyl-5-isoxazolyl)-5-bromothiophene-2-sulfonamide],–,–,0.314,2.26,–
Cc1noc(NS(=O)(=O)c2ccc(-c3ccccc3)o2)c1Br [N-(4-bromo-3-methyl-5-isoxazolyl)-5-phenylfuran-2-sulfonamide],–,–,0.857,2.43,–
Cc1noc(NS(=O)(=O)c2ccc(-c3ccccc3)s2)c1Br [N-(4-bromo-3-methyl-5-isoxazolyl)-5-phenylthiophene-2-sulfonamide],36.6,2.4,3.53,0.417,–
Cc1noc(NS(=O)(=O)c2ccco2)c1Br [N-(4-bromo-3-methyl-5-isoxazolyl)furan-2-sulfonamide],–,–,0.75,88.1,–

Structure (SMILES),"IC50 [1, 3] [µM]","IC50 [2, 4] [µM]","IC50 ([1]; Table 1, incubation at 4° C.) [µM]","IC50 [2, 5] [µM]",also measured
Cc1noc(NS(=O)(=O)c2ccsc2)c1Br [N-(4-bromo-3-methyl-5-isoxazolyl)thiophene-3-sulfonamide],–,–,0.135,23.4,–
Cc1onc(NS(=O)(=O)c2ccc(-c3ccccc3)cc2)c1Br [N-(4-bromo-5-methyl-3-isoxazolyl)-4-biphenylsulfonamide],–,–,–,–,"IC50 ([1]; Table 2, incubation at 4° C.): 6.4 ± 2 µM; IC50 ([1]; Table 2, † incubation at 24° C.): 49 µM; IC50 [2, 6]: 0.29 ± 0.02 µM; IC50 ([2]; Table 2, † incubation at 24° C., read-out: ETB): 1.78 µM"
Cc1onc(NS(=O)(=O)c2cccs2)c1Br [N-(4-bromo-5-methyl-3-isoxazolyl)thiophene-2-sulfonamide],–,–,0.211,27.3,–
"Cc1cc(C)c(NC(=O)c2sccc2S(=O)(=O)Nc2onc(C)c2Cl)c(C)c1 [N-(4-chloro-3-methyl-5-isoxazolyl)-2-(2,4,6-trimethylphenylaminocarbonyl)thiophene-3-sulfonamide]",0.000626,8.27,–,–,–
"Cc1ccc(CC(=O)c2sccc2S(=O)(=O)Nc2onc(C)c2Cl)c(C)c1 [N-(4-chloro-3-methyl-5-isoxazolyl)-2-(2,4-dimethylphenylacetyl)thiophene-3-sulfonamide]",0.0004,4.8,–,–,–
"COc1cc(NC(=O)c2sccc2S(=O)(=O)Nc2onc(C)c2Cl)c(C(N)=O)cc1OC [N-(4-chloro-3-methyl-5-isoxazolyl)-2-(2-carboxamido-4,5-dimethoxyphenylaminocarbonyl)thiophene-3-sulfonamide]",0.011,61,–,–,–
"CC(=O)OCc1c(C)cc(C)c(NC(=O)c2sccc2S(=O)(=O)Nc2onc(C)c2Cl)c1C [N-(4-chloro-3-methyl-5-isoxazolyl)-2-(3-acetoxymethyl-2,4,6-trimethylphenylaminocarbonyl)thiophene-3-sulfonamide]",0.0006,> 100,–,–,–
"Cc1cc(C)c(NC(=O)c2sccc2S(=O)(=O)Nc2onc(C)c2Cl)c(C)c1CC(=O)O [N-(4-chloro-3-methyl-5-isoxazolyl)-2-(3-carboxymethyl-2,4,6-trimethylphenylaminocarbonyl)thiophene-3-sulfonamide]",0.0015,> 100,–,–,–
"Cc1noc(NS(=O)(=O)c2ccsc2C(=O)OCCc2ccc3c(c2)OCO3)c1Cl [N-(4-chloro-3-methyl-5-isoxazolyl)-2-[2-(3,4-methylenedioxyphenyl)ethoxycarbonyl-3-sulfonamide]",0.23,6.2,–,–,–
"COc1cc(C#N)c(NC(=O)c2sccc2S(=O)(=O)Nc2onc(C)c2Cl)c(OC)c1OC [N-(4-chloro-3-methyl-5-isoxazolyl)-2-[(2,3,4-trimethoxy-6-cyano)phenylaminocarbonyl]thiophene-3-sulfonamide]",0.000169,12.5,–,–,–
Cc1ccc(NC(=O)c2c(S(=O)(=O)Nc3onc(C)c3Cl)c3ccccc3n2C)cc1 [N-(4-chloro-3-methyl-5-isoxazolyl)-2-[(4-tolyl)aminocarbonyl]-1-methylindole-3-sulfonamide],31.3,14.7,–,–,–
"Cc1noc(NS(=O)(=O)c2ccsc2CC2(c3ccc4c(c3)OCO4)OCCO2)c1Cl [N-(4-chloro-3-methyl-5-isoxazolyl)-2-[β,β-(ethylenedioxy)-3,4-(methylenedioxy)phenethyl]thiophene-3-sulfonamide]",0.128,2.09,–,–,–
Cc1noc(NS(=O)(=O)c2ccccc2-c2ccccc2)c1Cl [N-(4-chloro-3-methyl-5-isoxazolyl)-2-biphenylsulfonamide],–,–,–,–,"IC50 ([1]; Table 2, incubation at 4° C.): 0.00123 µM; IC50 [2, 6]: ~14 µM"
Cc1noc(NS(=O)(=O)c2cccc(-c3ccccc3)c2)c1Cl [N-(4-chloro-3-methyl-5-isoxazolyl)-3-biphenylsulfonamide],–,–,–,–,"IC50 ([1]; Table 2, incubation at 4° C.): > 0.03 µM; IC50 [2, 6]: 0.793 µM; IC50 ([2]; read-out: IC50 for ETB receptors): ~0.793 µM"
Cc1noc(NS(=O)(=O)c2ccc(-c3ccccc3)cc2)c1Cl [N-(4-chloro-3-methyl-5-isoxazolyl)-4-biphenylsulfonamide],–,–,–,–,"IC50 ([1]; Table 2, incubation at 4° C.): 4.93 ± 3 µM; IC50 [2, 6]: 0.29 ± 0.1 µM"
CCc1ccc(-c2ccc(S(=O)(=O)Nc3onc(C)c3Cl)s2)s1 [N-(4-chloro-3-methyl-5-isoxazolyl)-5-(5-ethylthien-2-yl)thiophene-2-sulfonamide],12,0.71,–,–,–
